Data on three compounds can be found in ChEMBL document CHEMBL4622896, “Enzymatic biosynthesis and biological evaluation of novel 17-AAG glucoside as potential anti-cancer agents” (Bioorg Med Chem Lett, 2020).

One series has as its system SW480. Put plainly: Antiproliferative activity against human SW480 cells assessed as cell growth inhibition by MTT assay. The series is classed as functional, cell-based. (In general: Formazan colour is commonly taken as a measure of viable cells.)
Series [1] in a line: Toxicity in nude mouse xenografted with human CNE2Z cells assessed as effect on kidney at 1 mg/kg, ip administered for 19 days by hematoxylin and eosin staining based assay. In kind it is organism-based. The settings on record: in vivo, 456 h.
The subject of series [2] is CNE2Z. The series can be described thus: Antitumor activity against human CNE2Z cells xenografted in nude mouse assessed as reduction in tumor volume at 1 mg/kg, ip administered for 19 days relative to control. To be noted: 456 h. In kind it is functional. (In general: Xenograft models place foreign cells or tissue in a host animal.)
In series [3] the target is T1, Heat shock protein HSP90 (Homo sapiens, UniProt P07900+P08238). Put plainly: Inhibition of HSP90 in human CNE2Z cells assessed as downregulation of c-Raf expression at 10 to 40 uM by Western blot analysis. In kind it is cell-based. Background: A western blot detects proteins with antibodies after separation by electrophoresis.
Series [4] can be described thus: Toxicity in nude mouse xenografted with human CNE2Z cells assessed as effect on body weight at 1 mg/kg, ip administered for 19 days. In kind it is organism-based. The settings on record: in vivo, 456 h.
A further series relates to SMMC-7721. The series can be described thus: Antiproliferative activity against human SMMC7721 cells assessed as cell growth inhibition by MTT assay. In kind it is functional, cell-based.
Another series concerns HepG2. Put plainly: Antiproliferative activity against human HepG2 cells assessed as cell growth inhibition by MTT assay. The series is classed as functional, cell-based.
For series [5], the system named is CNE2Z. The series can be described thus: Antiproliferative activity against human CNE2Z cells assessed as cell growth inhibition by MTT assay. The series is classed as functional, cell-based.
A short description of series [6]: Solubility of the compound in water relative to 17-AAG. The series is classed as physicochemical. The settings on record: buffer.
A further series has as its system MDA-MB-231. Put plainly: Antiproliferative activity against human MDA-MB-231 cells assessed as cell growth inhibition by MTT assay. In kind it is functional, cell-based.
Series [7] deals with T1, Heat shock protein HSP90. The series can be described thus: Inhibition of HSP90 ATPase activity (unknown origin) malachite-green phosphate assay. In kind it is protein assay.
The nature of series [8]: Toxicity in nude mouse xenografted with human CNE2Z cells assessed as effect on liver at 1 mg/kg, ip administered for 19 days by hematoxylin and eosin staining based assay. The series is classed as organism-based. The settings on record: in vivo, 456 h.
The target in series [9] is T1, Heat shock protein HSP90. The series can be described thus: Inhibition of HSP90 in human CNE2Z cells assessed as downregulation of Bcl2 expression at 10 to 40 uM by Western blot analysis. In kind it is cell-based.
Series [10] has as its target T1, Heat shock protein HSP90. Put plainly: Inhibition of HSP90 in human CNE2Z cells assessed as downregulation of HIF-1alpha expression at 10 to 40 uM by Western blot analysis. The series is classed as cell-based.
Series [11] deals with T1, Heat shock protein HSP90. Put plainly: Inhibition of HSP90 in human CNE2Z cells assessed as downregulation of Akt expression at 10 to 40 uM by Western blot analysis. In kind it is cell-based.
Series [12] can be described thus: Solubility of the compound in water. In kind it is physicochemical.
A short description of series [13]: Toxicity in nude mouse xenografted with human CNE2Z cells assessed as effect on lung at 1 mg/kg, ip administered for 19 days by hematoxylin and eosin staining based assay. The settings on record: in vivo, 456 h. In kind it is organism-based.
Series [14] concerns the target T1, Heat shock protein HSP90. Put plainly: Inhibition of HSP90 in human CNE2Z cells assessed as downregulation of Her-2 expression at 10 to 40 uM by Western blot analysis. In kind it is cell-based.
A short description of series [15]: Toxicity in nude mouse xenografted with human CNE2Z cells assessed as effect on body weight at 5 mg/kg, ip administered for 19 days. In kind it is organism-based. To be noted: in vivo, 456 h.

In brackets after ≈: the same amount, converted by molar mass. Activity calls are given as the source filed them. The calls are words filed in the database; no cut-off is given here.

Take `C=CCNC1=C2C[C@@H](C)C[C@H](OC)[C@H](O[C@@H]3O[C@H](CO)[C@@H](O)[C@H](O)[C@H]3O)[C@@H](C)/C=C(\C)[C@H](OC(N)=O)[C@@H](OC)/C=C\C=C(/C)C(=O)NC(=CC1=O)C2=O` (stereo in doubt): the IC50 (in general, the concentration needed to halve the response being measured) in the series with SW480 was 6130 nM; in the series on SMMC-7721, 5260 nM; with HepG2 it was 6280 nM; with CNE2Z [5] it was 9200 nM; with MDA-MB-231, 28500 nM; against Heat shock protein HSP90 [7], over 100000 nM. The Activity entry in series [1], in series [4], in series [8] and in series [13] was “Non-Toxic” throughout. Besides, the inhibition in vivo (usually the change of the read-out against control, counted positive when it falls) at 1 mg/kg in the series on CNE2Z [2] was determined as 75.5%. In addition, the inhibition result on Heat shock protein HSP90 [3], on Heat shock protein HSP90 [9], at Heat shock protein HSP90 [10], on Heat shock protein HSP90 [11] and on Heat shock protein HSP90 [14] was “Active” throughout. Besides, in [6], the Ratio is 10.5. Also, the solubility (usually how much of the substance goes into solution per volume) in [12] worked out at 661 µM (≈ 494 µg/mL).

As for `COC1=C2C[C@@H](C)C[C@H](OC)[C@H](O)[C@@H](C)/C=C(\C)[C@H](OC(N)=O)[C@@H](OC)/C=C\C=C(/C)C(=O)NC(=CC1=O)C2=O` [GELDANAMYCIN], the IC50 in the series on SW480 turned out to be 510 nM; in the series on SMMC-7721 it was 110 nM; in the series with HepG2, 1740 nM; with CNE2Z [5], 310 nM; with MDA-MB-231, 620 nM.

For `C=CCNC1=C2C[C@@H](C)C[C@H](OC)[C@H](O)[C@@H](C)/C=C(\C)[C@H](OC(N)=O)[C@@H](OC)/C=C\C=C(/C)C(=O)NC(=CC1=O)C2=O` [TANESPIMYCIN], the IC50 was found to be 280 nM with SW480; 190 nM in the series with SMMC-7721; 320 nM in the series with HepG2; 8410 nM in the series with CNE2Z [5]; 1790 nM with MDA-MB-231. For the same compound, in [15], the Activity result was “Non-Toxic”. This compound gave a solubility in series [12] of 63 µM (≈ 36.9 µg/mL).
